According to ChEMBL document CHEMBL3045214, “Pest-managing efficacy of trans-asarone isolated from Daucus carota L. seeds” (2002):
Calls of active or inactive are those of the source. No cut-off for these calls is given here.

How the values were obtained:
Caenorhabditis elegans = assay: Nematicidal activity against Caenorhabditis elegans assessed as mortality at 100 ug/ml after 24 hr by microscopic analysis; type: functional
Pichia kudriavzevii = assay: Antimicrobial activity against Pichia kudriavzevii at 100 ug/ml after 72 hr; type: functional
Candida parapsilosis = assay: Antimicrobial activity against Candida parapsilosis at 100 ug/ml after 72 hr; type: functional
[1] = test system: Staphylococcus epidermidis; assay: Antimicrobial activity against Staphylococcus epidermidis at 100 ug/ml after 72 hr; type: functional, organism-based
Staphylococcus aureus = assay: Antimicrobial activity against Staphylococcus aureus at 100 ug/ml after 72 hr; type: functional, organism-based
Escherichia coli = assay: Antimicrobial activity against Escherichia coli at 100 ug/ml after 72 hr; type: functional, organism-based
Fusarium oxysporum = assay: Antimicrobial activity against Fusarium oxysporum at 100 ug/ml after 72 hr; type: functional, organism-based
Aspergillus parasiticus = assay: Antimicrobial activity against Aspergillus parasiticus at 100 ug/ml after 72 hr; type: functional, organism-based
Aspergillus flavus = assay: Antimicrobial activity against Aspergillus flavus at 100 ug/ml after 72 hr; type: functional, organism-based
Candida albicans = assay: Antimicrobial activity against Candida albicans at 100 ug/ml after 72 hr; type: functional
Manduca sexta = assay: Antifeedant activity against Manduca sexta at 100 ug/ml after 6 days; type: functional
Heliothis virescens = assay: Antifeedant activity against Heliothis virescens (tobacco budworm) at 100 ug/ml after 6 days; type: functional
Helicoverpa zea = assay: Antifeedant activity against Helicoverpa zea (corn earworm) at 100 ug/ml after 6 days; type: functional
Aedes aegypti [2] = assay: Mosquitocidal activity against fourth-instar larvae of Aedes aegypti assessed as mortality after 24 hr; type: functional, organism-based
Panagrellus redivivus = assay: Nematicidal activity against Panagrellus redivivus assessed as mortality at 100 ug/ml after 24 hr by microscopic analysis; type: functional
Aedes aegypti [3] = assay: Mosquitocidal activity against fourth-instar larvae of Aedes aegypti assessed as mortality at 100 ug/ml after 24 hr; type: functional
Aedes aegypti [4] = assay: Mosquitocidal activity against fourth-instar larvae of Aedes aegypti assessed as mortality at 200 ug/ml after 24 hr; type: functional

SMILES	mortality (Caenorhabditis elegans)	inhibition zone (IZ) (Pichia kudriavzevii)	inhibition zone (IZ) (Candida parapsilosis)	Activity [1]	Activity (Staphylococcus aureus)	Activity (Escherichia coli)	Activity (Fusarium oxysporum)	Activity (Aspergillus parasiticus)	Activity (Aspergillus flavus)	inhibition zone (IZ) (Candida albicans)	Activity (Manduca sexta)	Activity (Heliothis virescens)	Activity (Helicoverpa zea)	mortality (Aedes aegypti [2])	mortality (Panagrellus redivivus)	also measured
COc1cc(OC)c(OC)cc1C=O	inactive	inactive	inactive	inactive	inactive	inactive	inactive	inactive	inactive	inactive	inactive	inactive	inactive	inactive	inactive	–
CC(C)=CCC/C(C)=C/CO	inactive	inactive	inactive	inactive	inactive	inactive	inactive	inactive	inactive	inactive	inactive	inactive	inactive	inactive	inactive	–
C/C=C/c1cc(OC)c(OC)cc1OC [TRANS-ASARONE]	–	–	–	inactive	inactive	inactive	inactive	inactive	inactive	–	79%	96%	97%	Active	–	mortality at 100 µg/mL (Caenorhabditis elegans): 100%; zone of inhibition at 100 µg/mL (Pichia kudriavzevii; read-out: IZ): 7 mm; zone of inhibition at 100 µg/mL (Candida parapsilosis; Lodderomyces parapsilosis, read-out: IZ): 6 mm; zone of inhibition at 100 µg/mL (Candida albicans; read-out: IZ): 6 mm; mortality at 100 µg/mL (Aedes aegypti [3]): 43%; mortality at 200 µg/mL (Aedes aegypti [4]): 100%; mortality at 100 µg/mL (Panagrellus redivivus): 100%
CCCCCCCC/C=C\CCCCCCCC(=O)O	inactive	inactive	inactive	inactive	inactive	inactive	inactive	inactive	inactive	inactive	–	–	–	inactive	inactive	–
